System: Glyphosate resistant cotton
Experiment: Field test: defoliation and desiccation of glyphosate resistant cotton
Type: in vivo
Settings: post-emergence spray, scale 0-100% vs untreated plots
Method: In the examples below, the value E which is to be expected if the activity of the individual compounds is just additive was calculated using the method of S. R. Colby (1967) “Calculating synergistic and antagonistic responses of herbicide combinations”, Weeds 15, p. 22 ff.
where X=effect in percent using active compound A at an application rate a; Y=effect in percent using active compound B at an application rate b; E=expected effect (in %) of A+B at application rates a+b.
If the experimentally determined value is higher than the value E calculated according to Colby's equation, a synergistic effect is present.
The phenyluracils I and/or the other active ingredients according to the present invention were formulated in a suitable way, either separately or in mixture, e.g. as emulsifiable concentrates (EC), soluble concentrates (SL), suspo-emulsions (SE), suspension concentrates (SC) or water-dispersible granules (WG). The formulation(s) were suspended or emulsified in water as a distribution medium immediately prior to spraying. Afterwards, the aqueous mixture was evenly sprayed on the test plots by means of finely distributing nozzles.
The test plots of rows of fully mature crop plants at the beginning of leaf fall were of uniform size (typically between 14 and 37 square meters, each) and the distribution of treated and untreated plots was organized according to a randomised bloc design. The plots were treated post-emergence, i.e. the aqueous mixture as described above was sprayed on the crop plants.
The evaluation of the defoliation or desiccation caused by the phenyluracils I and/or the other active ingredients according to the present invention was carried out using a scale from 0 to 100%, compared to the untreated control plots. Here, 0 means no defoliation or desiccation and 100 means complete defoliation of the crop plants, or complete desiccation of the leaves of the crop plant.
Defoliation and Desiccation of Glyphosate Resistant Cotton by the Phenyluracil 1.7 Alone as Well as by a Mixture of the Phenyluracil 1.7 and Glyphosate; Field Test
In this example, glyphosate (isopropylammonium salt) was formulated as a 360 g/l SL and Phenyluracil 1.7 as a 120 g/l EC. Prior to application, the formulated active ingredients were tank-mixed with an aqueous 140 l/ha spray solution which contained, in addition, 10 g/l of Agridex.

[1] = use rate Phenyluracil I.7 12.5 g/ha

Structure (SMILES)	Glyphosate resistant cotton defoliation at 4 DAT (% defoliation), Found (use rate glyphosate 840 g/ha)	Glyphosate resistant cotton desiccation at 4 DAT (% desiccation), Found (use rate glyphosate 840 g/ha)	Glyphosate resistant cotton defoliation at 4 DAT (% defoliation), Found [1]	Glyphosate resistant cotton desiccation at 4 DAT (% desiccation), Found [1]
O=C(O)CNCP(=O)(O)O [Glyphosate, glyphosate]	0%	3%		
CC(C)N(C)S(=O)(=O)NC(=O)c1cc(-n2c(=O)cc(C(F)(F)F)n(C)c2=O)c(F)cc1Cl [I.7]			13%	63%
